Assay in all cases: relative viability (nuclei count vs DMSO), 5 days (fraction); higher = more cells survive
Compound in experiment [1]: C1CC(C1)(C(=O)O)C(=O)O.[NH2-].[NH2-].[Pt+2] [Carboplatin] + C[C@]1(O)C[C@@H](c2nc(-c3ccc4ccc(-c5ccccc5)nc4c3)c3c(N)nccn32)C1 [Linsitinib] (partner 1 µM)
The method in brief:
(§1)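 Five library-drug doses in √10 steps were combined with a fixed anchor-drug dose, or a single drug was given alone, by pin tool to lung cancer cell lines in 1536-well plates the day after seeding. Nuclei were stained and counted after 5 days. Relative viability is the nuclei count in treated wells over that in vehicle wells, taken as the median of duplicate plates.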

Compound in experiment [2]: C1CC(C1)(C(=O)O)C(=O)O.[NH2-].[NH2-].[Pt+2] [Carboplatin] + C[C@@H](Oc1cc(-c2cnn(C3CCNCC3)c2)cnc1N)c1c(Cl)ccc(F)c1Cl [Crizotinib] (partner 1 µM)
The method in brief: as §1

Compound in experiment [3]: C1CC(C1)(C(=O)O)C(=O)O.[NH2-].[NH2-].[Pt+2] [Carboplatin] + O=C(c1cc(Cc2n[nH]c(=O)c3ccccc23)ccc1F)N1CCN(C(=O)C2CC2)CC1 [Olaparib] (partner 8 µM)
The method in brief: as §1

Compound in experiment [4]: C1CC(C1)(C(=O)O)C(=O)O.[NH2-].[NH2-].[Pt+2] [Carboplatin] + Cc1nc(NC(=O)N2CCC[C@H]2C(N)=O)sc1-c1ccnc(C(C)(C)C(F)(F)F)c1 [Alpelisib] (partner 2 µM)
The gist of the method:
as §1

For PC-14, the relative viability in experiment [1] (first compound 0.08 µM) came to 0.979; in experiment [1] (first compound 0.253 µM), 0.931; in experiment [1] (first compound 0.8 µM) it was 0.939; in experiment [1] (first compound 2.53 µM), 0.921; in experiment [1] (first compound 8 µM), 0.55; in experiment [2] (first compound 0.08 µM), 0.895. In addition, the relative viability was found to be 0.856 in experiment [2] (first compound 0.253 µM); 0.851 in experiment [2] (first compound 0.8 µM); 0.83 in experiment [2] (first compound 2.53 µM); 0.532 in experiment [2] (first compound 8 µM); 0.266 in experiment [3] (first compound 0.08 µM); 0.266 in experiment [3] (first compound 0.253 µM). Also, the relative viability in experiment [3] (first compound 0.8 µM) came out at 0.171; in experiment [3] (first compound 2.53 µM) it was 0.118; in experiment [3] (first compound 8 µM), 0.0838; in experiment [4] (first compound 0.08 µM), 0.992; in experiment [4] (first compound 0.253 µM), 0.838; in experiment [4] (first compound 0.8 µM) it was 0.875. The results for the relative viability in experiment [4] (first compound 2.53 µM) and in experiment [4] (first compound 8 µM) were 0.883 and 0.711, respectively.

In the case of RERF-LC-KJ, the relative viability was 0.913 in experiment [1] (first compound 0.08 µM); 0.895 in experiment [1] (first compound 0.253 µM); 0.97 in experiment [1] (first compound 0.8 µM); 0.807 in experiment [1] (first compound 2.53 µM); 0.726 in experiment [1] (first compound 8 µM); 0.824 in experiment [2] (first compound 0.08 µM). Also, the relative viability was 0.861 in experiment [2] (first compound 0.253 µM); 0.84 in experiment [2] (first compound 0.8 µM); 0.72 in experiment [2] (first compound 2.53 µM); 0.631 in experiment [2] (first compound 8 µM); 1.03 in experiment [3] (first compound 0.08 µM); 0.866 in experiment [3] (first compound 0.253 µM). In addition, the relative viability in experiment [3] (first compound 0.8 µM) stood at 0.884; in experiment [3] (first compound 2.53 µM), 0.657; in experiment [3] (first compound 8 µM), 0.416; in experiment [4] (first compound 0.08 µM), 0.887; in experiment [4] (first compound 0.253 µM), 0.806; in experiment [4] (first compound 0.8 µM) it was 0.81. The relative viability in experiment [4] (first compound 2.53 µM) is 0.883; in experiment [4] (first compound 8 µM) it was 0.594.

Turning to SK-LU-1, the relative viability turned out to be 1.23 in experiment [1] (first compound 0.08 µM); 1.02 in experiment [1] (first compound 0.253 µM); 1.11 in experiment [1] (first compound 0.8 µM); 1.06 in experiment [1] (first compound 2.53 µM); 0.624 in experiment [1] (first compound 8 µM); 1.09 in experiment [2] (first compound 0.08 µM). Further, the relative viability is 1.08 in experiment [2] (first compound 0.253 µM); 1.05 in experiment [2] (first compound 0.8 µM); 0.961 in experiment [2] (first compound 2.53 µM); 0.626 in experiment [2] (first compound 8 µM); 0.517 in experiment [3] (first compound 0.08 µM); 0.483 in experiment [3] (first compound 0.253 µM). Moreover, the relative viability in experiment [3] (first compound 0.8 µM) amounted to 0.387; in experiment [3] (first compound 2.53 µM), 0.425; in experiment [3] (first compound 8 µM) it was 0.356; in experiment [4] (first compound 0.08 µM), 0.903; in experiment [4] (first compound 0.253 µM) it was 1.07; in experiment [4] (first compound 0.8 µM), 0.933. Besides, the results for the relative viability in experiment [4] (first compound 2.53 µM) and in experiment [4] (first compound 8 µM) were 0.792 and 0.392, respectively.

For SK-MES-1, the relative viability in experiment [1] (first compound 0.08 µM) was found to be 1.11; in experiment [1] (first compound 0.253 µM) it was 1.05; in experiment [1] (first compound 0.8 µM), 1.04; in experiment [1] (first compound 2.53 µM), 1.01; in experiment [1] (first compound 8 µM) it was 0.936; in experiment [2] (first compound 0.08 µM), 0.958. Besides, the relative viability in experiment [2] (first compound 0.253 µM) was determined as 1.02; in experiment [2] (first compound 0.8 µM), 1.01; in experiment [2] (first compound 2.53 µM), 0.914; in experiment [2] (first compound 8 µM) it was 0.909; in experiment [3] (first compound 0.08 µM), 0.843; in experiment [3] (first compound 0.253 µM), 0.748. The relative viability was 0.646 in experiment [3] (first compound 0.8 µM); 0.621 in experiment [3] (first compound 2.53 µM); 0.537 in experiment [3] (first compound 8 µM); 1.06 in experiment [4] (first compound 0.08 µM); 0.906 in experiment [4] (first compound 0.253 µM); 0.922 in experiment [4] (first compound 0.8 µM). Besides, the results for the relative viability in experiment [4] (first compound 2.53 µM) and in experiment [4] (first compound 8 µM) were 0.873 and 0.917, respectively.

As for SW 1573, the relative viability in experiment [1] (first compound 0.08 µM) was found to be 0.757; in experiment [1] (first compound 0.253 µM), 0.621; in experiment [1] (first compound 0.8 µM), 0.642; in experiment [1] (first compound 2.53 µM) it was 0.738; in experiment [1] (first compound 8 µM), 0.557; in experiment [2] (first compound 0.08 µM) it was 0.821. The relative viability is 0.781 in experiment [2] (first compound 0.253 µM); 0.652 in experiment [2] (first compound 0.8 µM); 0.886 in experiment [2] (first compound 2.53 µM); 0.661 in experiment [2] (first compound 8 µM); 0.579 in experiment [3] (first compound 0.08 µM); 0.552 in experiment [3] (first compound 0.253 µM). In addition, the relative viability in experiment [3] (first compound 0.8 µM) worked out at 0.477; in experiment [3] (first compound 2.53 µM), 0.493; in experiment [3] (first compound 8 µM), 0.234; in experiment [4] (first compound 0.08 µM), 0.827; in experiment [4] (first compound 0.253 µM) it was 0.758; in experiment [4] (first compound 0.8 µM), 0.767. Moreover, the relative viability in experiment [4] (first compound 2.53 µM) was found to be 0.798; in experiment [4] (first compound 8 µM), 0.693.

(Values after the supplement of paper PMC10307832.)
